Common to all, as to format: cell-based
A short description of data set [1]: Cytotoxicity in TZM-bl cells (XTT). The note with it: human, XTT, 3 days. As to the method: (§1) The cytotoxicity of test compounds in TZM-bl cells was also measured by the XTT method described previously^7. […] The soluble intracellular formazan was quantitated colorimetrically at 450 nm 4 h later. The percent of cytotoxicity and the CC50 values were calculated as above. (See Table 4)

Another data set deals with TZM-bl cells. As to the kind of experiment: Cytotoxicity in TZM-bl cells (XTT). The note with it: XTT, 3 days. As to the method:
as §1

Data set [2] deals with HIV-1 pseudovirus pseudotyped with HXB2 Env. Briefly: microbe, parasite or virus in culture. The following applies: single cycle assay, TZM-bl cells infected with HIV-1 pseudovirus pseudotyped with HXB2 Env.
[3] abbreviates: Human immunodeficiency virus 1, HXB2, TZM-bl.

Molecules are shown by their SMILES. Where only a bound is given, the exact number is not on record here.
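For IC50 in this document: endpoint is IC50 for inhibition of pseudovirus infection of TZM-bl cells.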

`N=C(N)NCCCC(NC(=O)c1ccc(-c2ccccc2)[nH]1)C(=O)NN1CCOCC1` (stereo not drawn) [Compound 10]: the CC50 at 3 days in data set [1] is > 43 µM.

In data set [1], `Cc1nc(C(NC(=O)c2ccc(-c3ccc(Cl)c(F)c3)[nH]2)C2CCCCN2)sc1CO` (single isomer, unassigned) [Compound 20] yielded a CC50 at 3 days of 15.2 ± 0.2 µM.

For the compound `Cc1nc(C(CN)NC(=O)c2ccc(-c3ccc(Cl)c(F)c3)[nH]2)sc1CO` (single isomer, unassigned) [Compound 51], in data set [1], the CC50 at 3 days is ~28 µM.

With `O=C(NC(c1ccccc1)c1ccc[nH]1)c1ccc(-c2ccc(Cl)cc2)[nH]1` (stereo not drawn) [Compound 1], in data set [1], the 50% cytotoxic concentration (CC50) at 3 days was > 53 µM.

`Cc1nc(C(NC(=O)c2ccc(-c3ccc(Cl)c(F)c3)[nH]2)C2CCCCN2)sc1CCCO` (single isomer, unassigned) [Compound 31] displayed a CC50 at 3 days in data set [1] of 8.2 ± 0.3 µM.

On to `Cc1ccc(-c2ccc(C(=O)NC(c3nc(C)c(CO)s3)C3CCCCN3)[nH]2)cc1F` (single isomer, unassigned) [Compound 22], for which the CC50 at 3 days in data set [1] is ≥ 36 µM.

Regarding `Cc1nc(C(NC(=O)c2ccc(-c3ccc(Cl)cc3)[nH]2)C2CCCCN2)[nH]c1CO` (single isomer, unassigned) [Compound 33], half-maximal cytotoxicity in data set [1] (CC50 at 3 days) was put at 28 ± 0.5 µM.

As to `N=C(N)Nc1ccc(CC(NC(=O)c2ccc(-c3ccc(Cl)cc3)[nH]2)C(=O)N2CCOCC2)cc1` (stereo not drawn) [Compound 3], the half-maximal cytotoxic concentration (CC50) at 3 days in data set [1] was > 36 µM.

For `CS(=O)(=O)NCCNC(=O)C(CCCNC(=N)N)NC(=O)c1ccc(-c2ccccc2)[nH]1` (stereo not drawn) [Compound 7], the 50% cytotoxic concentration (CC50) at 3 days in data set [1] is > 43 µM.

For the compound `Cc1nccn1Cc1ccc(CNC(=O)c2ccc(-c3ccc(Cl)cc3)[nH]2)o1` [Compound 12], in data set [1], the half-maximal cytotoxic concentration (CC50) at 3 days was 22 ± 0.4 µM.

As to `CN1CCN(NC(=O)C(CCCNC(=N)N)NC(=O)c2ccc(-c3ccc(Cl)cc3)[nH]2)CC1` (stereo not drawn) [Compound 8], the CC50 at 3 days in data set [1] is > 42 µM.

Consider `Cc1n[nH]c(C)c1CNC(=O)c1ccc(-c2ccc(Cl)cc2)[nH]1` [Compound 11], for which the cytotoxic concentration (CC50) at 3 days in data set [1] was ~60 µM.

With `Cc1nc(C(CNC(=N)N)NC(=O)c2ccc(-c3ccc(Cl)c(F)c3)[nH]2)sc1CO` (single isomer, unassigned) [Compound 48], the CC50 at 3 days in data set [1] was > 36 µM.

With `CNCC(NC(=O)c1ccc(-c2ccc(Cl)cc2)[nH]1)c1nc(C)c(CO)s1` (single isomer, unassigned) [Compound 58], the CC50 at 3 days in data set [1] is ~37 µM.

Consider `NCCNC(=O)c1ccc(-c2ccc(Cl)c(F)c2)[nH]1` [Compound 71], for which, in data set [1], the CC50 at 3 days was found to be 19.4 ± 0.9 µM.

`Cc1nc(C(NC(=O)c2ccc(-c3ccc(Cl)cc3)[nH]2)C(C)(C)N)sc1CO` (single isomer, unassigned) [Compound 110] returned a CC50 in the data set with TZM-bl cells of 20.6 ± 1.2 µM. Besides, the half-maximal inhibitory concentration (IC50) in data set [2] is 1.1 ± 0.2 µM.

`CNCC(NC(=O)c1ccc(-c2cc(F)c(Cl)c(F)c2)[nH]1)c1ncc(CO)s1` (single isomer, unassigned) [Compound 127] had a CC50 in the data set on TZM-bl cells of 13.9 ± 0.7 µM. The IC50 in data set [2] (setting [3]) turned out to be 0.42 ± 0.2 µM.

`CNCC(NC(=O)c1ccc(-c2cc(F)c(Cl)c(F)c2)[nH]1)c1ncc(CO)s1` (single isomer, unassigned) [Compound 128] registered a cytotoxic concentration (CC50) in the data set on TZM-bl cells of 10.4 ± 0.8 µM. Further, in data set [2], half-maximal inhibition (IC50) was put at 0.36 ± 0.04 µM.

As to `Cc1nc(C(CCN)NC(=O)c2ccc(-c3ccc(Cl)cc3)[nH]2)sc1CO` (single isomer, unassigned) [Compound 89], in the data set on TZM-bl cells, half-maximal cytotoxicity (CC50) was put at 41 ± 1 µM. The same compound registered an IC50 in data set [2] of 4 ± 0.3 µM.

With `Cc1ccc(-c2ccc(C(=O)NC(c3ncc(CO)s3)C(C)(C)N)[nH]2)cc1F` (single isomer, unassigned) [Compound 126], it took 18.1 ± 0.7 µM to reach half-maximal cytotoxicity in the data set on TZM-bl cells (CC50). In addition, the IC50 in data set [2] stood at 0.54 ± 0.01 µM.

Turning to `CCN(CC)Cc1ccc(OC)c(CNC(=O)c2ccc(-c3ccc(Cl)cc3)[nH]2)c1` [Compound 13], the cytotoxic concentration (CC50) at 3 days in data set [1] was 14.2 ± 1 µM.

Consider `NCC(NC(=O)c1ccc(-c2ccc(Cl)c(F)c2)[nH]1)c1ncc(CO)s1` (single isomer, unassigned) [Compound 102], for which, in the data set with TZM-bl cells, the midpoint of cytotoxicity, the CC50, lay at 31.8 ± 0.4 µM. This compound displayed an IC50 in data set [2] of 0.77 ± 0.04 µM.

Consider `Cc1ccc(-c2ccc(C(=O)NC(c3nc(C)c(CCO)s3)C3CCCCN3)[nH]2)cc1F` (single isomer, unassigned) [Compound 25], for which the CC50 in the data set with TZM-bl cells worked out at 15.3 ± 0.2 µM. In data set [2], this compound displayed an IC50 of 6.3 ± 0.3 µM.

As to `COc1ccc(-c2ccc(C(=O)NC(CN)c3ncc(CO)s3)[nH]2)cc1OC` (single isomer, unassigned) [Compound 130], in the data set on TZM-bl cells, the CC50 is > 74.5 µM. Besides, in data set [2], the concentration for half-maximal inhibition (IC50) was > 74.5 µM.

With `CNCCC(NC(=O)c1ccc(-c2ccc(C)c(F)c2)[nH]1)c1nc(C)c(CO)s1` (single isomer, unassigned) [Compound 79], the midpoint of cytotoxicity in the data set with TZM-bl cells, the CC50, lay at 38.9 ± 2.1 µM. The compound further displayed an IC50 in data set [2] of 1.6 ± 0.4 µM.

The compound `COc1cc(C(=O)NC(CN)c2nc(C)c(CO)s2)[nH]c1-c1ccc(Cl)cc1` (single isomer, unassigned) [Compound 106] came in with a CC50 in the data set on TZM-bl cells of 22.2 ± 2.5 µM. The IC50 in data set [2] stood at 12.4 ± 2.5 µM.

`Cc1nc(C(CCN)NC(=O)c2ccc(-c3ccc(Cl)c(F)c3)[nH]2)sc1CO` (single isomer, unassigned) [Compound 87]: the half-maximal cytotoxic concentration (CC50) with TZM-bl cells stood at 35 ± 3 µM. In data set [2], this compound came in with an IC50 of 6.6 ± 2 µM.

For `Cc1ccc(-c2ccc(C(=O)NC(CNC(=N)N)c3nc(C)c(CO)s3)[nH]2)cc1F` (single isomer, unassigned) [Compound 50], the cytotoxic concentration (CC50) with TZM-bl cells is > 37 µM. The concentration for half-maximal inhibition (IC50) in data set [2] was > 20 µM.

Turning to `Cc1nc(C(CCN(C)C)NC(=O)c2ccc(-c3ccc(Cl)c(F)c3)[nH]2)sc1CO` (single isomer, unassigned) [Compound 75], the CC50 with TZM-bl cells is 21.3 ± 0.6 µM. For the same compound, in data set [2], the IC50 came to 1.5 ± 0.3 µM.

As to `Cc1nc(C(CN)NC(=O)c2ccc(-c3ccc(Cl)cc3)n2C)sc1CO` (single isomer, unassigned) [Compound 91], the half-maximal cytotoxic concentration (CC50) in the data set with TZM-bl cells came out at 35.8 ± 0.3 µM. In data set [2] (setting [3]), this compound yielded a 50% inhibitory concentration (IC50) of 26 ± 1.4 µM.

As to `CNCC(NC(=O)c1ccc(-c2ccc(Cl)c(F)c2)[nH]1)c1ncc(CO)s1` (single isomer, unassigned) [Compound 116], the CC50 in the data set with TZM-bl cells stood at 17.4 ± 0.4 µM. Further, 1.4 ± 0.05 µM corresponded to half-maximal inhibition in data set [2] (IC50).

Take `Cc1nc(C(NC(=O)c2ccc(-c3ccc(Cl)c(F)c3)[nH]2)C2CCCCN2)[nH]c1CO` (single isomer, unassigned) [Compound 36]: in the data set on TZM-bl cells, the half-maximal cytotoxic concentration (CC50) is 31.5 ± 0.2 µM. Half-maximal inhibition in data set [2] (IC50) required 16.2 ± 0.2 µM.

`Cc1ccc(-c2ccc(C(=O)NC(CCN)c3nc(C)c(CO)s3)[nH]2)cc1F` (single isomer, unassigned) [Compound 85] gave a CC50 in the data set on TZM-bl cells of 43.8 ± 1.6 µM. Moreover, inhibition in data set [2] was half-maximal at 4.2 ± 1.7 µM (IC50).

`Cc1nc(C(NC(=O)c2ccc(-c3ccc(Cl)c(F)c3)[nH]2)C(C)(C)N)sc1CO` (single isomer, unassigned) [Compound 112] showed a CC50 in the data set with TZM-bl cells of 13.9 ± 0.7 µM. For the same compound, the IC50 in data set [2] stood at 0.27 ± 0.04 µM.

`Cc1ccc(-c2ccc(C(=O)NC(CN)c3nc(C)c(CO)s3)[nH]2)cc1F` (single isomer, unassigned) [Compound 44]: the cytotoxic concentration (CC50) with TZM-bl cells was ≥ 34 µM. In addition, the IC50 in data set [2] was found to be 1.1 ± 0.1 µM.

For the compound `CNCCC(NC(=O)c1ccc(-c2ccc(Cl)c(F)c2)[nH]1)c1nc(C)c(CO)s1` (single isomer, unassigned) [Compound 81], it took 22 ± 0.6 µM to reach half-maximal cytotoxicity with TZM-bl cells (CC50). The compound also registered a 50% inhibitory concentration (IC50) in data set [2] of 1.5 ± 0.4 µM.

As for `Cc1ccc(-c2ccc(C(=O)NC(c3nc(C)c(CO)[nH]3)C3CCCCN3)[nH]2)cc1F` (single isomer, unassigned) [Compound 38], the cytotoxic concentration (CC50) in the data set on TZM-bl cells amounted to 34 ± 0.2 µM. For the same compound, the IC50 in data set [2] came to 17 ± 0.2 µM.

For the compound `Cc1ccc(-c2ccc(C(=O)NC(CN(C)C)c3nc(C)c(CO)s3)[nH]2)cc1F` (single isomer, unassigned) [Compound 65], in the data set on TZM-bl cells, the cytotoxic concentration (CC50) was > 40 µM. In addition, half-maximal inhibition in data set [2] (IC50) required 6.3 ± 1.8 µM.
